Results from patent US20200385396A1, “Compond for treatment or prevention of obesity or diseases related to obesity, and application thereof” (SHANGHAI INSTITUTES FOR BIOLOGICAL SCIENCES, CHINESE …, priority 2017, published 2020).

How the values were obtained:
normal mice [1] = experiment: Food intake of mice after single intraperitoneal injection; assay type: in vivo, mouse
Protocol: (§1) Mice were intraperitoneally injected with DMSO or HLY72 (dissolved in DMSO) 25 μL within 2 hours before turning off the lamp. During the intragastric experiment, the high concentration of HLY72 dissolved in DMSO was dissolved in 10% cyclodextrin, and the total volume was 100 μL Volume by gavage, so that the final concentration of DMSO was less than 10%. The diet was weighed at the 3rd hour, the 6th hour, the 12th hour, and the 24th hour respectively after the lights out. The corresponding mouse body weight was also weighed at the same time before the daily administration. The fat content of mice was measured with the magnetic resonance fat content measuring instrument of the animal platform in SIBCB.
The next question we are very concerned about is whether HLY78 has similar functions to NUCB2 protein in mice. Up to now, the most classic function reported for NUCB2 protein is to reduce the food intake of mice at night. Therefore, the experiment was designed: 20 mg/kg of HLY78 was injected intraperitoneally within two hours before turning off the lights at night, and then the food intake of the mice was measured at different time points (0-3 h, 0-6 h, 0-12 h, 0-24 h). […] During the three days of the adaptive injection period before HLY78 injection, both groups of mice were injected with DMSO. On the day of injection of HLY78 and the two days before the injection of DMSO, the body weight of the two groups of mice is also the same (FIG. 2b).
Next, two small molecules HLY72 and HLY103 were selected to perform functional experiments on the food intake in mice.

normal mice [2] = experiment: Body weight and daily food intake of normal mice under repeated dosing; assay type: in vivo, mouse; conditions: for body weight after treatment / daily food intake compared with the control group / reduction in total body weight / body weight before treatment: normal mice; for body weight before treatment: start
Protocol: as §1
After screening better small-molecule compound and probably determining its key groups, whether HLY72 has a weight-loss effect has become the most wanted result immediately. For this problem, we directly used normal mice intraperitoneally injected with HLY72 for 5 consecutive days.
In order to further investigate whether the administration of HLY72 by oral gavage also has a weight-loss effect, and because of the convenience of oral administration, many drugs are taken orally. We have also considered one step more for future applications, so that the administration of oral gavage was used to see the effect of HLY72 on the body weight of normal mice. The same was 20 mg/kg HLY72 intragastric treatment for 5 days.
After confirming that HLY72 can indeed reduce the weight of mice, we examine two more questions: (1) Whether HLY72's weight-reducing effect is dose-dependent; (2) Whether HLY72-like molecule HLY103 not binding to NUCB2 has a weight-reducing effect. […] We also do the statistics on the daily food intake of the mice in these three days, which is consistent with the conclusion of the short-term statistics in the previous day.

high-fat diet obese mice = experiment: Blood biochemical tests and liver slices of obese mice; assay type: in vivo, mouse; conditions: 20 mg/kg
Protocol: Mouse liver tissues were taken and fixed in 4% paraformaldehyde at 4° C. overnight. It was washed twice with PBS buffer solution in 30% and 50% ethanol for 30 minutes each, and stored in 70% ethanol at 4° C. (1) Gradient dehydration of ethanol: 80% ethanol for 30 minutes, 95% ethanol for 30 minutes, 100% ethanol for 15 minutes, and fresh 100% ethanol for 15 minutes. (2) Xylene transparent: ½ absolute ethanol plus ½ xylene for 15 minutes, xylene for 10 minutes, and fresh xylene for 10 minutes. (3) Wax immersion, embedding, sectioning: ½ xylene plus ½ paraffin for 30 minutes, paraffin 1 for 90 minutes, paraffin 2 for 120 minutes, paraffin 3 overnight for embedding, conventional section thickness was 4 μm, pasted on clean glass slides that have been processed, the slides were baked at 37° C. overnight, collected in a slide box and sealed at 4° C. (4) Xylene dewaxing, gradient ethanol rehydration: tissue sections were dewaxed three times with xylene, 10 minutes each time, and placed in ½ xylene plus ½ absolute ethanol for 15 minutes. After 5 minutes each of 100%, 90%, 80%, 70%, 50% and 30% ethanol, it was put in pure water for 5 minutes. (5) HE staining, filming: hematoxylin staining at room temperature for 20 minutes, rinsed under running water, color separation with 0.1% hydrochloric acid and ethanol for 1 second, rinsed under running water, after 1 minute each of 30%, 50%, 70%, 80% and 95% ethanol, it was stained with 1% eosin for 1 minute. It was put in absolute ethanol for 1 minute and dehydrated with fresh absolute ethanol twice for 5 minutes each time, it was put in ½ absolute ethanol plus ½ xylene for 15 minutes, and then xylene 1, 2, 3 for 5 minutes each time. Sealed with neutral gum and stored at room temperature in a dry place. The cell platform Olympus BX51 microscope was used for filming.
The effects on the various adverse indicators of obesity after drug administration were detected.

[3] = tested on: NUCB2 gene knockout heterozygous mice; experiment: Effect on NUCB2 gene knockout heterozygous mice; assay type: in vivo, mouse
Text: Heterozygous mice prepared by the CRISPR-Cas9 system were purchased from Xiamen University. […] Heterozygous mice deleted 83 bases in E3 and confirmed by sequencing (FIG. 17c). In order to facilitate the experiment, for mice with 83 bases deleted, we designed primers to detect by PCR (FIG. 17b). Because of the failure to obtain NUCB2 knockout homozygous mice for multiple matches, only heterozygous mice can be used for research.

Water solubility = assay type: physicochemical
[4] = intraperitoneal 20 mg/kg, 5 consecutive days

Structure (SMILES): C=Cc1cccc2c1N(C)Cc1cc3c(cc1-2)OCO3 [HLY72]
- food intake of mice (normal mice [1]; 7.5 mg/kg): no significant effect
- food intake of mice (normal mice [1]; 15 mg/kg): significant gradient effect
- food intake of mice (normal mice [1]; 30 mg/kg): significant gradient effect
- effect on body weight / weight loss (normal mice [2]; intraperitoneal, 3 consecutive days, HLY72 10 and 20 mg/kg, HLY103 20 mg/kg): concentration gradient
- body weight after treatment (normal mice [2]; [4]): 23.37 ± 0.36 g
- daily food intake compared with the control group (normal mice [2]; [4]): significantly reduced
- reduction in total body weight (normal mice [2]; [4]): 9.21%±0.74%
- body weight before treatment (normal mice [2]; intraperitoneal 20 mg/kg): 25.73 ± 0.29 g
- body weight after treatment (normal mice [2]; oral gavage 20 mg/kg, 5 days): 23.14 ± 0.45 g
- daily food intake compared with the control group (normal mice [2]; oral gavage 20 mg/kg, 5 days): decreased significantly
- reduction in total body weight (normal mice [2]; oral gavage 20 mg/kg, 5 days): 8.43%±0.81%
- body weight before treatment (normal mice [2]; oral gavage 20 mg/kg): 25.26 ± 0.37 g
- alanine transaminase ALT (high-fat diet obese mice): decreased
- aspertate aminotransferase AST (high-fat diet obese mice): does not change
- blood glucose (high-fat diet obese mice): decreased significantly
- cholesterol levels (high-fat diet obese mice): decreased significantly
- triacylglycerol (high-fat diet obese mice): decreased significantly
- fatty liver caused by high fat (liver slices) (high-fat diet obese mice; HE staining): well treated
- effect on daily food intake in heterozygous mice [3]: reduced
- effect on mouse weight in heterozygous mice [3]: reduced
- water solubility (Water solubility): very poor
